Reference: ChEMBL document CHEMBL2434955, “Potent inhibition of norovirus by dipeptidyl α-hydroxyphosphonate transition state mimics” (Bioorg Med Chem Lett, 2013)

Experiments:
Homo sapiens [1] = species on record: Homo sapiens; test: Inhibition of alpha-chymotrypsin (unknown origin) at 2.5 uM after 30 mins
Homo sapiens [2] = species on record: Homo sapiens; test: Inhibition of human neutrophil elastase at 17.5 uM after 30 mins
[3] = target: Prothrombin (Homo sapiens) (UniProt P00734); test: Inhibition of thrombin (unknown origin) at 2.75 uM after 30 mins
Trypsin (Homo sapiens) = Trypsin (Homo sapiens) (UniProt P07477+P07478+P35030); test: Inhibition of trypsin (unknown origin) at 125 uM after 30 mins; format: protein assay
Norovirus = test: Antiviral activity against Norovirus in cell-based replicon system
[4] = target: T1, Carboxypeptidase A1 (Homo sapiens) (UniProt P15085); test: Inhibition of carboxypeptidase A (unknown origin) at 43 uM after 30 mins
T1 sequence (whole entry): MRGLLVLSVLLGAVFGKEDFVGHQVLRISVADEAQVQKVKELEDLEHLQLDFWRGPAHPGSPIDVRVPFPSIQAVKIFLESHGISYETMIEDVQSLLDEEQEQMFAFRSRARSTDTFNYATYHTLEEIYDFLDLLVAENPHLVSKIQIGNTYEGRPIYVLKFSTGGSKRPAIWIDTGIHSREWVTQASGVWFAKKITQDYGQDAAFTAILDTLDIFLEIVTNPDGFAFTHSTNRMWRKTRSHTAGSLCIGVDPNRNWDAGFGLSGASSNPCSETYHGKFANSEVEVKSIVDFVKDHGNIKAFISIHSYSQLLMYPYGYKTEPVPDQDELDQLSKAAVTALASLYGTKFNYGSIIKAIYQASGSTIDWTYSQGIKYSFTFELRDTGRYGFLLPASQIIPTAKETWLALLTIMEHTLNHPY

[5] = tested on: Norovirus 3CL protease (Norovirus); test: Inhibition of Norovirus 3CL protease by FRET assay

Row | Structure (SMILES) | EC50 (Norovirus) [µM] | IC50 [5] [µM] | further results
1 | CCOP(=O)(OCC)C(O)[C@H](CC1CCNC1=O)NC(=O)[C@H](CC1CCCCC1)NC(=O)OCc1ccccc1 (mixture of isomers) | 0.25 | 3.5 | inhibition (Homo sapiens [1]): 0%; inhibition (Homo sapiens [2]): 15%; inhibition [3]: 0%; inhibition (Trypsin (Homo sapiens)): 0%; inhibition [4]: 0%
2 | CCCCOP(=O)(OCCCC)C(O)[C@H](CC1CCNC1=O)NC(=O)[C@H](CC1CCCCC1)NC(=O)OCc1ccccc1 (mixture of isomers) | 0.5 |  | 
3 | COP(=O)(OC)C(O)[C@H](CC1CCNC1=O)NC(=O)[C@H](CC1CCCCC1)NC(=O)OCc1ccccc1 (mixture of isomers) | 2.8 | 8.3 | 
4 | CCOP(=O)(OCC)C(O)[C@H](CC1CCNC1=O)NC(=O)[C@H](CC(C)C)NC(=O)OCc1ccccc1 (mixture of isomers) | 0.8 | 11.5 | 
5 | O=C(N[C@@H](CC1CCCCC1)C(=O)N[C@@H](CC1CCNC1=O)C(O)P(=O)(OCC(F)(F)F)OCC(F)(F)F)OCc1ccccc1 (mixture of isomers) | 0.35 | 6.5 | 
6 | CC(C)C[C@H](NC(=O)OCc1ccccc1)C(=O)N[C@@H](CC1CCNC1=O)C(O)P(=O)(O)O (mixture of isomers) | 7.5 |  | 
7 | COP(=O)(OC)C(O)[C@H](CC1CCNC1=O)NC(=O)[C@H](CC(C)C)NC(=O)OCc1ccccc1 (mixture of isomers) | 3.5 | 20.2 | 
8 | O=C(N[C@@H](CC1CCCCC1)C(=O)N[C@@H](CC1CCNC1=O)C(O)P(=O)(OCc1ccccc1)OCc1ccccc1)OCc1ccccc1 (mixture of isomers) | 0.6 |  | 
